According to publication PMC5382548 (Scientific Reports, 2015):

Experiments:
[1] = tested on: UTR-1 G4 in the 5′UTR of KRAS mRNA; assay: FRET melting assay, UTR-1 RNA G4; assay type: binding; conditions: G4 0.2 μM, ligand 1 μM
Experimental: Two compounds 2d and 3e were selected and evaluated for their ability to stabilize the 32-mer sequence in the NHE of the human KRAS promoter (KRAS32R)[12], two G4 motifs in the 5′UTR of KRAS mRNA (UTR-1 and UTR-2)[24] and a 21-mer DNA G4 from the human telomeric sequence (F21T). The KRAS32R sequence has been described as forming two G4 structures which exist in equilibrium. One sequence folds into a G4 (Q1) with a Tm of ~55°C that is disrupted on increasing the temperature and then, the full-length 32-mer sequence folds into a new G4 (Q2, Tm of ~72°C)[13]. In our assay, the KRAS32R sequence (in the presence or absence of IQcs) folded in a single G4 structure (Tm ≈ 54°C), as shown by the single inflection for the first derivative of the FRET melting data (Sup. Inf.; Figure S4). This monophasic behaviour was also observed in the presence of TMPyP4[13].
Oligonucleotide sequences were purchased from Eurofins MWG Synthesis GmbH, Germany or STAB VIDA Genomics Lab, Caparica, Lisbon, Portugal. […]
The ability of indolo[3,2-c]quinolines to stabilize DNA sequences was investigated using a Fluorescence Resonance Energy Transfer (FRET) assay as reported elsewhere.

[2] = tested on: ALT (telomerase negative human lung fibroblast); assay: SRB short-term cytotoxicity assay, ALT; assay type: cell-based; conditions: 96 h
Experimental: Short-term anti-proliferative assays were carried out by two different assays using a panel of human cancer and non-malignant human cell lines. […] The transformed human embryonic kidney cell line HEK293T (wt KRAS) was sensitive to all tested drugs, including TMPyP4, a cationic porphyrin established as a G4 ligand, as well as the anticancer drug 5-fluorouracil (5-FU).
Human cell lines, breast carcinoma (MCF7), lung carcinoma (A549), pancreatic cancer (MIA PaCa2, Panc-1), immortalised telomerase-negative human lung fibroblast (ALT) and normal human lung fibroblast (WI-38), were all purchased from American Type Cell Culture (ATCC). Cell lines were maintained in appropriate medium supplemented with 10% fetal bovine serum (Invitrogen, UK), 2 mM L-glutamine (Invitrogen, Netherlands), and other components as specified by the suppliers. All cell lines were maintained at 37°C, 5% CO2, and routinely passaged. Short-term growth inhibition was measured using the SRB assay as described previously[43] (additional details described in Supplementary Information). […]
Sulforhodamine B (SRB) short-term cytotoxicity assay
Cells were seeded at appropriate densities into the wells of 96 well plates in their corresponding medium and incubated overnight to allow the cells to attach. Subsequently cells were exposed to various concentrations of freshly made solutions of drugs and incubated for 96 h. The cells were subsequently fixed with ice-cold trichloacetic acid (TCA) (10%, w/v) for 30 min and stained with 0.4% SRB dissolved in 1% acetic acid for 15 min.
All incubations were carried out at room temperature except for TCA fixation, which was at 4 °C. […]
After electrophoretic transfer onto nitrocellulose membranes, immunoblots were blocked with 5% milk solution, and next incubated overnight at 4 °C with primary mouse monoclonal antibody reactive to KRAS/p53 (#sc-30/sc-126; Santa Cruz Biotechnology Inc., Santa Cruz, CA, USA). […] Steady-state protein levels were expressed as mean ±SEM from at least three independent experiments.

[3] = tested on: KRAS32R (DNA, G4) AGGGCGGTGTGGGAAGAGGGAAGAGGGGGAGG; assay: FRET melting; conditions: 60 mM K+; K-cacodylate pH 7.4; 0.2 μM DNA, 1 μM compound; SD ≤ 0.2
[4] = tested on: UTR-1 (RNA, G4) GCGGCGGCGGAGG; assay: FRET melting; conditions: 60 mM K+; K-cacodylate pH 7.4; 0.2 μM RNA, 1 μM compound; SD ≤ 0.2
[5] = tested on: UTR-2 (RNA, G4) UGUGGGAGGGGCGGGUCUGGG; assay: FRET melting; conditions: 60 mM K+; K-cacodylate pH 7.4; 0.2 μM RNA, 1 μM compound; SD ≤ 0.2
[6] = tested on: KRAS21R (DNA, G4) AGGGCGGTGTGGGAAGAGGGA; assay: spectrofluorimetric titration, one-site Hill slope fit; conditions: 60 mM K+, K-cacodylate pH 7.4, 25 °C, 1 μM compound, apparent, SD ≤ 0.2 × 10^6

With CCN(CC)CCCNc1ccc2c(c1)[nH]c1c2c[n+](C)c2ccc(NCCCN(CC)CC)cc12.[Cl-] [3e] the “ΔTm UTR-1” value [1] was 15.7 °C, the IC50 [2] was 7.11 µM and the ΔTm [3] was 17.0 °C. It also gave a ΔTm [4] of 15.7 °C, a ΔTm [5] of 9.9 °C and a Ka ([6]; Hill 2.4) of 8.6e+06 M⁻¹.

With CCN(CC)CCCNc1ccc2c(c1)c1[nH]c3ccccc3c1c[n+]2C [2d] the “ΔTm UTR-1” value [1] was 5.1 °C, the IC50 [2] was 1.93 µM and the ΔTm [3] was 10.7 °C. For the same compound, the ΔTm [4] was 5.1 °C, the ΔTm [5] was 2.0 °C and the Ka ([6]; Hill 2.0) was 4.4e+06 M⁻¹.

Cn1cc2c3ccccc3nc-2c2cc(Br)ccc21 [2a, 2-bromo-5-methyl-indolo[3,2-c]quinoline] showed an IC50 [2] of 4.75 µM.
